Experimental data reported in the NIST ThermoML archive (doi:10.1016/j.jct.2004.07.031).
Numbers after ± are expanded uncertainties.

Details: 298.15 K; 101.33 kPa; Crystal; PPMS instrument (Quantum Design)

Compound | molar entropy
O=P([O-])([O-])[O-].[Gd+3] [gadolinium orthophosphate] | 124.57 ± 5.6 J/K/mol
O=P([O-])([O-])[O-].[La+3] [lanthanum orthophosphate] | 108.24 ± 4.9 J/K/mol
